Reference: paper PMC13266984 (Journal of medicinal chemistry, 2026)

Legend:
[1] = target: T1, OE19 (3A1) (Homo sapiens, UniProt P30838); assay: Cellular ALDEFLUOR assay in OE19 cells (preferential ALDH3A1 expression)
T1 sequence (P30838 1-453): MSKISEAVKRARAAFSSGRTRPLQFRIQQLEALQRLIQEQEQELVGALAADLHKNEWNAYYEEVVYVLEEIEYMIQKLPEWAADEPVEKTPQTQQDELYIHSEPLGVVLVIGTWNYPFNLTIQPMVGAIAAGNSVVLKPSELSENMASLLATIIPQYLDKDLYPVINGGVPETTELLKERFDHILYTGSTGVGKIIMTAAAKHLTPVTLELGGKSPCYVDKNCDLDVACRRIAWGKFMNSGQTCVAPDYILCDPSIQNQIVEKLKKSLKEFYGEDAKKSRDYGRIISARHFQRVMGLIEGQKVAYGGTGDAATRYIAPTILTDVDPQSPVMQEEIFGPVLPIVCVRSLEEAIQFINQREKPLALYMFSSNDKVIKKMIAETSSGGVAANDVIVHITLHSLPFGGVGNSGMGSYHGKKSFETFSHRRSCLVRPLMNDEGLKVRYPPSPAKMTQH

[2] = target: T2, Human ALDH3A1 (Homo sapiens, UniProt P30838); assay: ALDH3A1 biochemical assay (benzaldehyde/NADP+, diaphorase-resazurin readout, 1,536-well)
T2 sequence (P30838 1-453): T1 sequence (P30838 1-453)

[3] = Table S5, biochemical curve class
[4] = Table S4, biochemical curve class

Row | AC50 [1] [nM] | Cell_Efficacy ([1]; Table S5, OE19 cells) | Cell_CC-v2 ([1]; Table S5, cellular curve class) | AC50 [2] [nM] | Efficacy ([2]; Table S5, biochemical) | CC-v2 [2, 3] | Cell_Efficacy ([1]; Table S4, OE19 cells) | Cell_CC-v2 ([1]; Table S4, cellular curve class) | Efficacy ([2]; Table S4, biochemical) | CC-v2 [2, 4] | Structure (SMILES)
1 | 342 | -95.79 | -1.1 | 28.2 | -101.06 | -1.1 | – | – | – | – | Cc1ccc(CNC(=O)c2csc(N3CCN(c4cccc(C(F)(F)F)c4)CC3)n2)cc1F [NCGC01407934-01]
2 | 17800 | 23.55 | 5 | 708 | -71.46 | -1.2 | – | – | – | – | O=C(NCc1cccc(N2CCCC2=O)c1)c1csc(N2CCN(c3cccc(C(F)(F)F)c3)CC2)n1 [NCGC01397385-01]
3 | 7080 | -125.53 | -2.1 | – | -20.50 | 4 | – | – | – | – | O=C(Nc1ccc(CNC(=O)c2csc(N3CCN(c4cccc(C(F)(F)F)c4)CC3)n2)cc1)c1ccncc1 [NCGC01397389-01]
4 | 251 | -83.43 | -1.1 | 891 | -53.81 | -1.2 | – | – | – | – | C[S+](=O)([O-])c1cccc(CNC(=O)c2csc(N3CCN(c4cccc(C(F)(F)F)c4)CC3)n2)c1 [NCGC01407971-01]
5 | 12400 | – | – | 910 | – | – | -81.66 | -1.3 | -88.53 | -1.1 | Cc1cccc(CNC(=O)c2csc(N3CCN(c4ccccc4Cl)CC3)n2)c1 [NCGC01211121-01]
6 | 790 | – | – | 510 | – | – | -88.59 | -1.1 | -83.25 | -1.1 | Cc1cccc(CNC(=O)c2csc(N3CCN(c4ccc(Cl)c(Cl)c4)CC3)n2)c1 [NCGC01211120-01]
7 | 79.4 | -61.99 | -1.2 | 447 | -37.47 | -1.2 | – | – | – | – | O=C(NCc1cccc([S+](=O)([O-])C(F)(F)F)c1)c1csc(N2CCN(c3cccc(C(F)(F)F)c3)CC2)n1 [NCGC01397299-01]
8 | 860 | -116.21 | -2.1 | 11.2 | -103.16 | -1.1 | – | – | – | – | O=C(NCc1cccc(CC(F)(F)F)c1)c1csc(N2CCN(c3cccc(C(F)(F)F)c3)CC2)n1 [NCGC01407930-01]
9 | 316 | -103.28 | -1.1 | 501 | -83.40 | -1.1 | – | – | – | – | O=C(NCc1cccc(OC(F)(F)F)c1)c1csc(N2CCN(c3cccc(C(F)(F)F)c3)CC2)n1 [NCGC01407819-01]
10 | 9650 | -60.41 | -1.4 | 14.1 | -101.87 | -1.1 | – | – | – | – | O=C(NCc1ccc(C#CC2CC2)cc1)c1csc(N2CCN(c3cccc(C(F)(F)F)c3)CC2)n1 [NCGC01407809-01]
11 | – | 0.00 | 5 | 631 | -52.77 | -1.2 | – | – | – | – | O=C(NCc1cccc(N2CCC[S+]2(=O)[O-])c1)c1csc(N2CCN(c3cccc(C(F)(F)F)c3)CC2)n1 [NCGC01407948-01]
12 | 1530 | -119.85 | -2.1 | 17.8 | -100.27 | -1.1 | – | – | – | – | O=C(NCc1cccc(Oc2ccccc2)c1)c1csc(N2CCN(c3cccc(C(F)(F)F)c3)CC2)n1 [NCGC01407978-01]
13 | 990 | – | – | 1290 | – | – | -81.24 | -1.1 | -72.39 | -1.2 | COC(=O)c1ccc(N2CCN(c3nc(C(=O)NCc4cccc(C)c4)cs3)CC2)cc1 [NCGC01211115-01]
14 | 11100 | – | – | 1020 | – | – | -103.93 | -2.1 | -83.70 | -1.1 | Cc1cccc(CNC(=O)c2csc(N3CCN(c4cccc(C#N)c4)CC3)n2)c1 [NCGC01210664-01]
15 | 990 | – | – | 730 | – | – | -93.51 | -1.1 | -97.63 | -1.1 | Cc1cccc(CNC(=O)c2csc(N3CCN(c4cccc(OC(F)(F)F)c4)CC3)n2)c1 [NCGC01219289-01]
16 | 965 | -104.84 | -2.2 | 2.2 | -100.26 | -1.1 | – | – | – | – | N#Cc1cccc(CNC(=O)c2csc(N3CCN(c4cccc(C(F)(F)F)c4)CC3)n2)c1 [NCGC01397393-01]
17 | 990 | – | – | 510 | – | – | -76.59 | -1.1 | -99.84 | -1.1 | Cc1cccc(CNC(=O)c2csc(N3CCN(c4ccc(F)c(Cl)c4)CC3)n2)c1 [Compound 12]
18 | 620 | – | – | 730 | – | – | -33.71 | -1.2 | -77.35 | -1.2 | Cc1cccc(CNC(=O)c2csc(N3CCN(c4ccc(C5(C#N)CCCCC5)cc4)CC3)n2)c1 [NCGC01210611-01]
19 | 2720 | -85.12 | -1.1 | 28.2 | -87.34 | -1.1 | – | – | – | – | O=C(NCc1ccc(S(F)(F)(F)(F)F)cc1)c1csc(N2CCN(c3cccc(C(F)(F)F)c3)CC2)n1 [NCGC01407933-01]
20 | 8810 | – | – | 1150 | – | – | -87.39 | -1.1 | -66.83 | -1.2 | COc1ccc(N2CCN(c3nc(C(=O)NCc4cccc(C)c4)cs3)CC2)c(OC)c1 [NCGC01211174-01]
21 | 31300 | – | – | 580 | – | – | -102.69 | -2.3 | -89.43 | -1.1 | COc1ccc(Cl)c(N2CCN(c3nc(C(=O)NCc4cccc(C)c4)cs3)CC2)c1 [NCGC01211381-01]
22 | 242 | -105.03 | -2.2 | 14.1 | -99.03 | -1.1 | – | – | – | – | O=C(NCc1ccc(C(F)F)c(F)c1)c1csc(N2CCN(c3cccc(C(F)(F)F)c3)CC2)n1 [NCGC01407984-01]
23 | 2240 | -108.81 | -1.1 | 398 | -26.41 | -1.4 | – | – | – | – | O=C(NCc1ccc(Oc2ccc(F)cc2)cc1)c1csc(N2CCN(c3cccc(C(F)(F)F)c3)CC2)n1 [NCGC01407922-01]
24 | 1570 | – | – | 460 | – | – | -79.67 | -1.1 | -48.74 | -1.2 | Cc1cccc(CNC(=O)c2csc(N3CCN(c4cccc(OCc5ccc(Cl)cc5)c4)CC3)n2)c1 [NCGC01211114-01]

Row | Structure (SMILES) | AC50 [1] [nM] | Cell_Efficacy ([1]; Table S5, OE19 cells) | Cell_CC-v2 ([1]; Table S5, cellular curve class) | AC50 [2] [nM] | Efficacy ([2]; Table S5, biochemical) | CC-v2 [2, 3] | Cell_Efficacy ([1]; Table S4, OE19 cells) | Cell_CC-v2 ([1]; Table S4, cellular curve class) | Efficacy ([2]; Table S4, biochemical) | CC-v2 [2, 4]
25 | Cc1cccc(CNC(=O)c2csc(N3CCN(c4ccc([S+](=O)([O-])F)cc4)CC3)n2)c1 [NCGC01211171-01] | 1970 | – | – | 1150 | – | – | -83.98 | -1.1 | -53.27 | -1.2
